# How the values were obtained:
# [1] = target: T1, HOXA1-PBX1/DNA (Mus musculus, UniProt P41778); test: EMSA, formation of HOXA1-PBX1/DNA ternary complex; type: binding; conditions: for Selectivity for HOXA1-PBX1/DNA ternary complex relative to the other complexes tested: versus PBX1/DNA, BRN1/DNA, BRN2/DNA
# T1 construct: the mouse/human 233-319 PBX1 protein
# T1 sequence (P41778 233-319): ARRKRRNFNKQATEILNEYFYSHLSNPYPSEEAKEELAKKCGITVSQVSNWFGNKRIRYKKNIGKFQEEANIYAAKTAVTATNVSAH
# [2] = target: T2, HOX-PBX1 cooperative DNA binding (Homo sapiens, UniProt P40424); conditions: literature value (Knoepfler et al. 1995); read-out: IC50 for blocking cooperative HOX-PBX DNA binding; cited from earlier work
# T2 sequence (P40424 1-430): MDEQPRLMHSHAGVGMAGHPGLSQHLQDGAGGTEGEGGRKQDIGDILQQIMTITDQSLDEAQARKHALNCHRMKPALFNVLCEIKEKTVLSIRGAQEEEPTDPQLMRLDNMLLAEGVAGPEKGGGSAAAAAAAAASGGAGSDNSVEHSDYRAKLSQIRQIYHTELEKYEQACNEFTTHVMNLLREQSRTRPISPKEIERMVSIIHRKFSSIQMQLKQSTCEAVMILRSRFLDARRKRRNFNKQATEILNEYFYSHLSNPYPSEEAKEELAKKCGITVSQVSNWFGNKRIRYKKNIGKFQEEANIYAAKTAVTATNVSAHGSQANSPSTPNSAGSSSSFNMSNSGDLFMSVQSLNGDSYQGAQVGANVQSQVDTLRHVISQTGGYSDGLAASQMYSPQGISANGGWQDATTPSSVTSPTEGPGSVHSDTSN
# [3] = target: T3, BRN1/DNA (Mus musculus, UniProt P31361); test: EMSA, BRN1/DNA complex (nuclear extracts from RA treated P19 cells); type: binding; conditions: EMSA with BRN1 recognition element probe
# T3 construct: using nuclear extracts from RA treated P19 cells; endogenous in cells; host or cells: RA-treated P19 cells, nuclear extract
# T3 sequence (P31361 1-497): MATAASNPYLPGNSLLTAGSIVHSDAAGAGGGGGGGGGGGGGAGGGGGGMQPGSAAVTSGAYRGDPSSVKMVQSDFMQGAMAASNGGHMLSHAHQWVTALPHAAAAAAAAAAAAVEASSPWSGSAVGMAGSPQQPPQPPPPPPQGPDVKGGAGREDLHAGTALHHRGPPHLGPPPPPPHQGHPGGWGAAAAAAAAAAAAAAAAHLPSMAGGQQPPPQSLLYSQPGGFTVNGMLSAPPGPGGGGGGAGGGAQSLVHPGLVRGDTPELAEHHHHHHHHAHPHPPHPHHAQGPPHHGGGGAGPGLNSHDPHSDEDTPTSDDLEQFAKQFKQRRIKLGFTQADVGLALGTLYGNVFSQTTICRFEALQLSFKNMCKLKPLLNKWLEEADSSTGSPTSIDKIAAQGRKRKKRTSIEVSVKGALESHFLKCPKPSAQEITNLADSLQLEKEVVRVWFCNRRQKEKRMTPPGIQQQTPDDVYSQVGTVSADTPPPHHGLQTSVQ
# Experimental: (§1) The selectivity of individual members of the library for the HOXA1-PBX1/DNA target, as well as the ability of some analogs to cross over to other transcription factor targets was evaluated by testing them in parallel against the BRN1 & BRN2 transcription factors. BRN1 and BRN2 are members of mammalian class III POU transcription factor family and are expressed in the developing embryonic brain (McEvilly et al., Science 295:1528 (2002), which is hereby incorporated by reference in its entirety). POU domain class transciption factors contain, in addition to the POU domain, a homeodomain helix-turn-helix class DNA binding motif similar to that found in the HOX and PBX class transcription factors (Josephson et al., Development 125:3087 (1998); Hara et al., PNAS 89(8):3280 (1992), which are hereby incorporated by reference in their entirety). EMSAs were performed with BRN1 & BRN2 exactly as was done with HOXA1-PBX1 except that a sequence recognition element known to bind BRN1/BRN2 was used as the probe (Pruitt et al., Gene Expression Patterns 4(6):671 (2004), which is hereby incorporated by reference in its entirety).
# [4] = target: T4, PBX1/DNA (Mus musculus, UniProt P41778); test: EMSA, formation of PBX1/DNA binary complex (FIG. 1); type: binding; conditions: for Inhibition of formation of the PBX1/DNA binary complex: FIG. 1
# T4 construct: the mouse/human 233-319 PBX1 protein
# T4 sequence (P41778 233-319): T1 sequence (P41778 233-319)
# From the text: Antagonist 31 differs from compound 15 by replacing the small cyclopropyl R1 with the larger 4-hydroxyphenyl group. […] On the other hand, both antagonists can bind in the hydrophobic pocket thereby preventing HOXA1 from binding to the binary complex. Upon closer evaluation of the compound 31 dose-response of the binary PBX/DNA band intensity relative to the ternary HOXA1-PBX/DNA band intensity, it was noted that the binary PBX/DNA band initially “increased” in intensity at low compound 31 concentrations. […] As the concentration of compound 31 is further increased, the binary PBX/DNA complex formation is inhibited enough to overcome the release of this binary complex from the ternary complex and, therefore, the binary band intensity begins to decrease.
# [5] = target: T5, BRN2/DNA (Mus musculus, UniProt P31360); test: EMSA, BRN2/DNA complex (nuclear extracts from RA treated P19 cells); type: binding; conditions: EMSA with BRN2 recognition element probe
# T5 construct: using nuclear extracts from RA treated P19 cells; endogenous in cells; host or cells: RA-treated P19 cells, nuclear extract
# Experimental: as §1
# [6] = Table 1, EMSA, averaged densitometric analysis of multiple gels
# [7] = Table 3, tricyclo[6.2.2.0^2,7]dodeca-2(7),3,5-trienes
# [8] = Table 2, 5,6,7,8-tetrahydro-naphthalenes
# T5 sequence (P31360 whole entry): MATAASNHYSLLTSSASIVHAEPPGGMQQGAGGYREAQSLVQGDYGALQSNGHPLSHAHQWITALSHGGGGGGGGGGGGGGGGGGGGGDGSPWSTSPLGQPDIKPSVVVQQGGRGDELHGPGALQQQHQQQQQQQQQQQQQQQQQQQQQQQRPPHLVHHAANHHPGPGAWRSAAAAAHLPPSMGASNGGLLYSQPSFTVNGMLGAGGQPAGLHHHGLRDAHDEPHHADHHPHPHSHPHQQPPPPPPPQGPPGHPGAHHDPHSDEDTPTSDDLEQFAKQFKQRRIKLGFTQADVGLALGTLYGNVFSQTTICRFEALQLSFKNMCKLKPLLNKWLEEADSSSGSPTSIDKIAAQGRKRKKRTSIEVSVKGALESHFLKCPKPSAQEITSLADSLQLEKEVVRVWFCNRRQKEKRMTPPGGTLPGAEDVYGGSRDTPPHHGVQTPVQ
molecule,measurement,setting,value
O=C(COc1ccc(C(=O)Nc2cccc(F)c2)c2ccccc12)Nc1ccc(F)cc1 [Compound 26],IC50,[1]; [6],293 µM
O=C(COc1ccc(C(=O)Nc2cccc(F)c2)c2c1C1CCC2CC1)NC1CC1 [Compound 61],IC50,[1]; [7],562 µM
QPQIYPWMRKLH,IC50,[2],100 µM
COc1ccc(NC(=O)COc2ccc(C(=O)Nc3cccc(F)c3)c3ccccc23)cc1 [Compound 29],IC50,[1]; [6],161 µM
COc1cccc(NC(=O)COc2ccc(C(=O)Nc3cccc(F)c3)c3ccccc23)c1 [Compound 28],IC50,[1]; [6],580 µM
O=C(COc1ccc(C(=O)Nc2cccc(F)c2)c2c1C1CCC2CC1)Nc1ccc(O)cc1 [Compound 62],IC50,[1]; [7],196 µM
O=C(COc1ccc(C(=O)Nc2cccc(F)c2)c2c1CCCC2)Nc1ccc(O)cc1 [Compound 50],IC50,[1]; [8],96 µM
COc1ccc(NC(=O)COc2ccc(C(=O)Nc3cccc(F)c3)c3ccccc23)cc1OC [Compound 34],IC50,[1]; [6],464 µM
"O=C(COc1ccc(C(=O)Nc2cccc(F)c2)c2c1C1CCC2CC1)NCC(F)(F)F [Compound 63, 6-[(2,2,2-Trifluoro-ethylcarbamoyl)-methoxy]-tricyclo[6.2.2.0^2,7]dodeca-2,4,6-triene-3-carboxylic Acid (3-fluoro-phenyl)-amide]",IC50,[1]; [7],258 µM
O=C(COc1ccc(C(=O)Nc2cccc(F)c2)c2ccccc12)Nc1ccc(O)cc1 [Compound 31],IC50,[3],124 µM
same,Inhibition of formation of the PBX1/DNA binary complex,[4],inhibited
same,Binary PBX/DNA band intensity at low compound concentrations,"[4]; dose-response, low concentrations",increased
same,IC50,[1]; [6],65 µM
same,Selectivity for HOXA1-PBX1/DNA ternary complex relative to the other complexes tested,[1],some selectivity
same,IC50,[5],138 µM
NC(=O)COc1ccc(C(=O)Nc2cccc(F)c2)c2ccccc12 [Compound 7],IC50,[1]; [6],272 µM
O=C(COc1ccc(C(=O)Nc2cccc(F)c2)c2c1CCCC2)NCC(F)(F)F [Compound 49],IC50,[1]; [8],84 µM
O=C(COc1ccc(C(=O)Nc2cccc(F)c2)c2c1CCCC2)NC1CC1 [Compound 48],IC50,[1]; [8],66 µM
O=C(COc1ccc(C(=O)Nc2cccc(F)c2)c2ccccc12)Nc1ccccc1 [Compound 23],IC50,[1]; [6],254 µM
CC(C)CNC(=O)COc1ccc(C(=O)Nc2cccc(F)c2)c2ccccc12 [Compound 13],IC50,[1]; [6],298 µM
O=C(COc1ccc(C(=O)Nc2cccc(F)c2)c2ccccc12)Nc1cccc(O)c1 [Compound 30],IC50,[3],142 µM
same,IC50,[1]; [6],86 µM
same,IC50,[5],148 µM
O=C(COc1ccc(C(=O)Nc2cccc(F)c2)c2ccccc12)NC1CC1 [Compound 15],IC50,[3],810 µM
same,Inhibition of formation of the PBX1/DNA binary complex,[4],ternary complex only
same,IC50,[1]; [6],173 µM
same,Selectivity for HOXA1-PBX1/DNA ternary complex relative to the other complexes tested,[1],selective
same,IC50,[5],> 10000 µM
O=C(COc1ccc(C(=O)Nc2cccc(F)c2)c2ccccc12)NCC(F)(F)F [Compound 17],IC50,[3],162 µM
same,IC50,[1]; [6],111 µM
same,IC50,[5],204 µM
CCCNC(=O)COc1ccc(C(=O)Nc2cccc(F)c2)c2ccccc12 [Compound 11],IC50,[1]; [6],278 µM
COc1ccccc1NC(=O)COc1ccc(C(=O)Nc2cccc(F)c2)c2ccccc12 [Compound 27],IC50,[1]; [6],718 µM
CC(C)NC(=O)COc1ccc(C(=O)Nc2cccc(F)c2)c2ccccc12 [Compound 12],IC50,[1]; [6],272 µM
C#CCNC(=O)COc1ccc(C(=O)Nc2cccc(F)c2)c2ccccc12 [Compound 16],IC50,[1]; [6],331 µM

# Reference: US7662750B2, “Protein-protein interaction antagonist screening libraries based upon 1,4-disubstituted naphthalenes and related scaffolds” (The Research Foundation of State University of New York, priority 2003, dated 2010)
